# Test results as given in patent US12540129B2, “KIF18A inhibitors” (AMGEN INC., priority 2019, dated 2026).
# Biological target: T1, Recombinant human KIF18A (1-467 His-tagged) protein (Homo sapiens, UniProt Q8NI77)
# T1 construct: Recombinant human KIF18A (1-467 His-tagged) protein; His; made in house
# Assay: KIF18A Enzyme Assay: microtubule-stimulated ATPase activity (ADP-Glo)
# Assay type: biochemical
# Details: 30 nM KIF18A, 75 μM ATP
# Source text: KIF18A Enzyme Assay: Microtubule-stimulated ATPase activity assay is used to measure KIF18A enzyme activity after treatment with compound. Compounds were 2-fold serially diluted in DMSO (Sigma Inc) over 22-point concentration range. Recombinant human KIF18A (1-467 His-tagged) protein was expressed using a baculovirus system and purified by affinity chromatography by Amgen Inc. Concentrations of KIF18A protein, microtubules (MT), and ATP in the reaction were optimized for standardized homogenous enzyme assay using ADP-Glorm Kinase/ATPase Assay Kit (Promega Inc). The assay measures ADP formed from the ATPase reaction. […] Read luminescence using EnVision microplate reader with ultra-luminescence module (Perkin Elmer Inc). Concentration-response curve-fitting and IC50 determination was performed using Genedata Screener Software (Standard 15.0.1, Genedata Inc) with a four-parameter logistic regression fit model.
# Table A provides data for compounds exemplified in the present application and priority document thereof, as representative compounds of the present invention, as follows: chemical name (as named by either ACD software or ChemDraw (Professional 15.0)) and biological data (IC50 in μM). Ex. # refers to Example No.
# T1 sequence (Q8NI77 1-467): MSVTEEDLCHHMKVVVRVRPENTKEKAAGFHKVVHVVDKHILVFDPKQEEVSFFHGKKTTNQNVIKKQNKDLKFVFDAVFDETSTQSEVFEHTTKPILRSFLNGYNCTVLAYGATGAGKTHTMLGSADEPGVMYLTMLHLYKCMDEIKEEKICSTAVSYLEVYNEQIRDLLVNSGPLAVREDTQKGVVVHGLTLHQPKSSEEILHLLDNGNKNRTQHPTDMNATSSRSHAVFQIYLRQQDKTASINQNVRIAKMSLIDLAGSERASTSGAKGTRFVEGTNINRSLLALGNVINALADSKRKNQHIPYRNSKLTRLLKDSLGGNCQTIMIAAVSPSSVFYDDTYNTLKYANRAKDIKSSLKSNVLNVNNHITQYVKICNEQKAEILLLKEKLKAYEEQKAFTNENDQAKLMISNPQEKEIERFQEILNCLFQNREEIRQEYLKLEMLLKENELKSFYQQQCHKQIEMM
# T1 sequence (P02550 whole entry partner): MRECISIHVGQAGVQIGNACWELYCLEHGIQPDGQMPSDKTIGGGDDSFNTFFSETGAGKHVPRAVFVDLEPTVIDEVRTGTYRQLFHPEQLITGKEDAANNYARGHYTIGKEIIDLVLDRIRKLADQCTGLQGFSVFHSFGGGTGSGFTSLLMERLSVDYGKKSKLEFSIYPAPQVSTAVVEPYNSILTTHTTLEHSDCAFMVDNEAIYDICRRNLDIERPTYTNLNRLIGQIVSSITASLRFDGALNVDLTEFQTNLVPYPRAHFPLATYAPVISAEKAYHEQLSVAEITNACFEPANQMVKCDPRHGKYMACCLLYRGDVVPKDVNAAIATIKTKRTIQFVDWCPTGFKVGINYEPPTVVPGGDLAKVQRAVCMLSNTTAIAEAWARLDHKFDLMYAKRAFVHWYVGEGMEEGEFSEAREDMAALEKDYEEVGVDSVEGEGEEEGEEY
# T1 sequence (P02554 whole entry partner): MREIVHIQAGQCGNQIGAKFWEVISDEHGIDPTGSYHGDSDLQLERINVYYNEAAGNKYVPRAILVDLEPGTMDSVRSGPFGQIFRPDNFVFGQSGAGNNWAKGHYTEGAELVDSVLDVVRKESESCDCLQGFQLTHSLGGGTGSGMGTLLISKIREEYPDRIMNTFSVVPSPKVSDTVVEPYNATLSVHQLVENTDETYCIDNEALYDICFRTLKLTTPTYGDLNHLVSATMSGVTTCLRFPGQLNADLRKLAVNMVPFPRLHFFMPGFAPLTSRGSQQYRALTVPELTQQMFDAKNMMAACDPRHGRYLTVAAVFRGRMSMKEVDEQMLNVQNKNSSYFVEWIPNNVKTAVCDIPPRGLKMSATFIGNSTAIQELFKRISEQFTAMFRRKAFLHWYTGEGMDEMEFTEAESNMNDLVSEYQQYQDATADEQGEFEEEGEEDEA
row,SMILES,IC50 [nM]
1,"CC(C)(C)NS(=O)(=O)c1cc(NC(=O)c2ccc(NC(C)(C)CO)nc2N2CCC3(CC2)CC3)cc(-c2ccco2)c1 [Example 112, N-(3-(N-(tert-butyl)sulfamoyl)-5-(furan-2-yl)phenyl)-6-((1-hydroxy-2-methylpropan-2-yl)amino)-2-(6-azaspiro[2.5]octan-6-yl)nicotinamide]",170
2,"CC(C)(CF)NS(=O)(=O)c1cccc(NC(=O)c2cccnc2N2CCC3(CC2)CC3)c1 [Example 101-8, N-(3-(N-(1-fluoro-2-methylpropan-2-yl)sulfamoyl)phenyl)-2-(6-azaspiro[2.5]octan-6-yl)nicotinamide]",279
3,"O=C(Nc1cccc(S(=O)(=O)NC2CCCCC2)c1)c1cccnc1N1CCC2(CC1)CC2 [Example 101-4, N-(3-(N-cyclohexylsulfamoyl)phenyl)-2-(6-azaspiro[2.5]octan-6-yl)nicotinamide]",918
4,"CN(C1CCC1)S(=O)(=O)c1cccc(NC(=O)c2cccnc2N2CCC3(CC2)CC3)c1 [Example 101-2, N-(3-(N-cyclobutyl-N-methylsulfamoyl)phenyl)-2-(6-azaspiro[2.5]octan-6-yl)nicotinamide]",610

# Second part, the molecule after the results:
row,IC50 [nM],SMILES
1,735,"O=C(Nc1cccc(S(=O)(=O)C2CCCC2)c1)c1ccncc1N1CCC2(CC1)CC2(F)F [Example 114-2, N-(3-(cyclopentylsulfonyl)phenyl)-3-(1,1-difluoro-6-azaspiro[2.5]octan-6-yl)isonicotinamide]"
2,141,"O=C(Nc1cccc(S(=O)(=O)C2CCCC2)c1)c1ccc(N2CC(CO)C2)nc1N1CCC2(CC1)CC2 [Example 103-20, N-(3-(cyclopentylsulfonyl)phenyl)-6-(3-(hydroxymethyl)azetidin-1-yl)-2-(6-azaspiro[2.5]octan-6-yl)nicotinamide]"
3,121,"Cc1ccc(NC(=O)c2ccc(NC(C)(C)CO)nc2N2CCC3(CC2)CC3)cc1S(=O)(=O)NC(C)(C)C [Example 105-16, N-(3-(N-(tert-butyl)sulfamoyl)-4-methylphenyl)-6-((1-hydroxy-2-methylpropan-2-yl)amino)-2-(6-azaspiro[2.5]octan-6-yl)nicotinamide]"
4,42,"C[C@@H](CO)Nc1ccc(C(=O)Nc2cccc(S(=O)(=O)C3CCCC3)c2)c(N2CCC3(CC2)CC3)n1 [Example 103-9, (S)-N-(3-(cyclopentylsulfonyl)phenyl)-6-((1-hydroxypropan-2-yl)amino)-2-(6-azaspiro[2.5]octan-6-yl)nicotinamide]"
5,221,"CC(C)(C)NS(=O)(=O)c1cccc(NC(=O)c2ccc(NC3CCC3)nc2N2CCC3(CC2)CC3)c1 [Example 102-16, N-(3-(N-(tert-butyl)sulfamoyl)phenyl)-6-(cyclobutylamino)-2-(6-azaspiro[2.5]octan-6-yl)nicotinamide]"
6,47,"O=C(Nc1cccc(S(=O)(=O)C2CCCC2)c1)c1ccc(NCCCO)nc1N1CCC2(CC1)CC2 [Example 103-2, N-(3-(cyclopentylsulfonyl)phenyl)-6-((3-hydroxypropyl)amino)-2-(6-azaspiro[2.5]octan-6-yl)nicotinamide]"
7,208,"CC(C)(CO)Nc1ccc(C(=O)Nc2cccc(S(=O)(=O)C(C)(C)C(F)(F)F)c2)c(N2CCC3(CC2)CC3)n1 [Example 105-3, 6-((1-hydroxy-2-methylpropan-2-yl)amino)-2-(6-azaspiro[2.5]octan-6-yl)-N-(3-((1,1,1-trifluoro-2-methylpropan-2-yl)sulfonyl)phenyl)nicotinamide]"
8,234,"CC(C)(C)NS(=O)(=O)c1cccc(NC(=O)c2ccc(N3CC[C@H](O)C3)nc2N2CCC3(CC2)CC3)c1 [Example 102-4, (S)-N-(3-(N-(tert-butyl)sulfamoyl)phenyl)-6-(3-hydroxypyrrolidin-1-yl)-2-(6-azaspiro[2.5]octan-6-yl)nicotinamide]"
9,116,"CC(C)(C)NS(=O)(=O)c1cccc(NC(=O)c2ccc(N[C@@H]3CC[C@H](O)C3)nc2N2CCC3(CC2)CC3)c1 [Example 102-22, N-(3-(N-(tert-butyl)sulfamoyl)phenyl)-6-(((1R,3S)-3-hydroxycyclopentyl)amino)-2-(6-azaspiro[2.5]octan-6-yl)nicotinamide]"
